Experiments:
HPV transformed cells = experiment: Cell viability, HPV transformed cells; type: cell-based; details: antiproliferative effects, 48-hr treatment; read-out: IC50 against HPV transformed cells
Procedure: Cell viability was assayed using CellTiter 960 AQueous One Solution Reagent (Promega, Madison, Wis.). Cells seeded at the concentration of 1,000 cells/well for HeLa, 5,000 cells/well for ES2 and HCT116 and 10,000-20,000 cells/well for other cell lines in 100 μL medium in 96-well plate were treated with RA series compounds at specified concentrations. After the indicated periods, cells were incubated according to the manufacturer's protocol with the MTS labeling mixture for 1-2 hr and absorbance at 490 nm measured using a Benchmark Plus microplate spectrophotometer (BIO-RAD).

[1] = test system: polyubiquitinated proteins, p53 and p21 in HeLa cells; experiment: Immunoblot of HeLa cell lysates; type: cell-based, human
Procedure: FIGS. 1 A-D show percent cell viability of RPMI-8226, ANBL6, and their respective in vitro selected bortezomib-resistant cell lines RPMI-8226-V10R and ANBL6-V10R as a function of 48 hr treatment with the indicated compounds. FIGS. 1 E-H show percent cell viability of indicated MM cell lines as a function of 48 hr treatment with the indicated compounds. […] Actin was used as a loading control. […] In FIG. 9C-E, purified 20S proteasomes were treated for 30 min with or without compounds (1 μM) prior to the addition of the specific fluorogenic substrate for chymotryptic (9C), tryptic (9D) or PGPH (9E) hydrolytic proteasome capacities. Mean±SD fluorescence associated with AMC released from the substrate was measured at 45 min. […] DMSO was added to all samples to a final concentration of 0.1% (upper panel). The effect of DMSO is highlighted by including ubiquitin—AMC (0.5 μM) hydrolysis with 2 nM UCH37 lacking DMSO (orange, bottom panel). In FIG. 9H, purified 19S RP (500 nM) in buffer was treated with corresponding compounds 30 min at 37° C. and AMC cleavage was measured with a fluorometer for 20 min. Ubal was used as a positive control.
Total cellular protein (10-20 μg) from each sample was subjected to SDS-PAGE, transferred to PVDF membranes and analyzed by Western blot. […]

[2] = Pharmacokinetic measurements, plasma; type: in vivo, mouse; details: 10 mg/kg i.p., BALB/c mice
Procedure: Tissue was harvested at 48 hr after single-dose intraperitoneal administration in non-tumor bearing mice. Blood was collected by cardiac puncture under anesthesia into heparinized syringes and centrifuged to obtain plasma. Tissues were rapidly dissected and snap frozen in liquid nitrogen. Samples were stored frozen at −70° C. until analysis. […] Tissue homogenates were prepared at a concentration of 200 mg/mL in PBS and further diluted 1:10 in mouse plasma before extraction using acetonitrile containing temazepam (100 ng/mL). Separation was achieved on Waters X-Terra™ C18 (50 mm×2.1 mm i.d., 3 μm) at room temperature using isocratic elution with acetonitrile/water mobile phase (70:30, v/v) containing 0.1% formic acid at a flow rate of 0.2 mL/min. […] Samples were quantitated over the assay range of 10 to 1000 ng/mL or 0.6 to 60 μg/g. […] Cmax and Tmax were the observed values from the mean data. The AUClast was calculated using the log-linear trapezoidal rule to the end of sample collection (AUClast) and extrapolated to infinity (AUC0-∞) by dividing the last quantifiable concentration by the terminal disposition rate constant (λz), which was determined from the slope of the terminal phase of the concentration-time profile. The half-life (T1/2) was determined by dividing 0.693 by λz. Relative bioavailability was calculated as follows: […]

[3] = test system: TNFα-induced NFκB activation in 293 cells; experiment: NFκB/FL reporter assay; type: cell-based; details: TNFα 10 ng/ml, 7 h
Procedure: 293 cells transiently transfected with either NFκB/FL (firefly luciferase reporter construct under control of an NFκB-driven promoter) or control CMV promoter-driven FL reporter construct were treated with compounds and TNFα (10 ng/ml) for 7 h. Upon the addition of luciferin, bioluminescence was measured in cell lysates using a luminometer. Results can be seen in FIG. 20.
293 cells transiently transfected with either NFκB/FL or control FL reporter genes were treated with compounds and TNFα (10 ng/ml) for 7 h. Upon the addition of luciferin, bioluminescence was measured in cell lysates using a luminometer.

cancer cells = experiment: Antiproliferative activity against cancer cells (design rationale); type: cell-based
From the text: We used Chloro and Nitro functional groups as substituent's on the aromatic ring due to their greater electron withdrawing effect at ortho (or) para (or) meta (or) both positions along with different amino acid linkages on bis-benzylidine piperidone moiety. Amino acids were chosen based in their physical characteristics like very hydrophobic (phenylalanine), strongly basic and hydrophilic (lysine), basic and hydrophilic (histidine) and amphiphilic (glycine). Commercially available Fmoc and Boc protected amino acids were used in the synthesis, and they were evaluated for their antiproliferatory activity against cancer cells.
Next we synthesized another set of compounds by converting free amine functionality to its Acetate (Ac), Acrolyl (Acr) and Benzoyl […] analogs as these units are part of many anticancer drugs because of their smaller size and feasibility to form inter molecular hydrogen bonds with proteins.
In the RA195 molecule two amino functionalities of lysine can provide more flexibility to make better analogs.

Structure (SMILES)	IC50 (HPV transformed cells) [nM]	levels of K48-linked polyubiquitinated proteins ([1]; 4 hr)	AUC [2] [ng·h/mL]	C1/F [2] [mL/min/kg]	Cmax [2] [ng/mL]	T1/2,α (distribution half-life) [2] [h]	T1/2,β (terminal half-life) [2] [h]	Ud/F [2] [L/kg]	TNFα-induced NFκB activation [3]	antiproliferative potency among analogs (cancer cells)	levels of p53 and p21 proteins ([1]; 1 μM, 12 h)	poly-ubiquitinated (Poly UB) proteins ([1]; 1 μM, 12 h)
Cl.N[C@@H](Cc1ccccc1)C(=O)N1CC(=Cc2ccc(Cl)c(Cl)c2)C(=O)C(=Cc2ccc(Cl)c(Cl)c2)C1 [RA190, 3,5-bis(3,4-dichlorobenzylidene)-1-(S-2-amino-3-phenyl)-piperidin-4-one-HCl salt]	≤ 300	dramatically increased	4393	38.3	808	4.2	25.5	83.61	Inhibits TNFα-Induced NFκB Activation	higher potency	–	–
Cl.NCCCC[C@H](NC(=O)OCC1c2ccccc2-c2ccccc21)C(=O)N1C/C(=C\c2ccc(Cl)c(Cl)c2)C(=O)/C(=C/c2ccc(Cl)c(Cl)c2)C1 [RA195]	–	–	–	–	–	–	–	–	inhibited TNFα-induced NFκB activation	higher potency	elevated the levels of p53 and p21 proteins	caused the accumulation of poly-ubiqutinated (Poly UB) proteins
